Laboratory results published in PubChem BioAssay (NCI).
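Grown in 96-well plates, cells were treated for 48 hours with each compound at five concentrations. Insufficient inhibition: endpoint recorded as highest concentration tested. Definition used: TGI = concentration required for complete inhibition of growth.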

What was measured:
Test in all cases: NCI tumour cell line growth inhibition, 48 h
DLD-1 colon = test system: DLD-1 colon
XF 498 CNS = test system: XF 498 CNS
P388 leukemia = test system: P388 leukemia
HOP-18 NSCLC = test system: HOP-18 NSCLC
SN12K1 renal = test system: SN12K1 renal
P388/ADR leukemia = test system: P388/ADR leukemia
KM20L2 colon = test system: KM20L2 colon
M19-MEL melanoma = test system: M19-MEL melanoma
RXF-631 renal = test system: RXF-631 renal
LXFL 529 NSCLC = test system: LXFL 529 NSCLC

Row | Compound | TGI (DLD-1 colon) [µM] | TGI (XF 498 CNS) [µM] | TGI (P388 leukemia) [µM] | TGI (HOP-18 NSCLC) [µM] | TGI (SN12K1 renal) [µM] | TGI (P388/ADR leukemia) [µM] | TGI (KM20L2 colon) [µM] | TGI (M19-MEL melanoma) [µM] | TGI (RXF-631 renal) [µM] | TGI (LXFL 529 NSCLC) [µM]
1 | Cc1c(-c2cc3n(n2)C(c2cccs2)C(C#N)=C(c2ccccc2)N3)c(=O)n(-c2ccccc2)n1C (stereo unspecified) | > 100 | > 100 | > 100 | > 100 | > 100 | > 100 | > 31.6 | > 100 |  | 
2 | C=C1c2c(cc3c(c2O)c(=O)c2ccccc2n3C)OC1(C)C | > 100 | 57.2 |  | > 100 |  |  | > 100 | > 100 | > 100 | > 100
3 | O=P(O)(O)C(CSc1ccccc1)P(=O)(O)O | > 100 | > 100 | > 100 | > 100 | > 100 | > 100 | > 100 | > 100 |  | 
4 | CC(C)(C)[Si](C)(C)OCCCC#CCO | > 100 | > 100 |  |  |  |  | > 100 |  | > 100 | > 100
5 | NC(=O)CCC(NCc1c2ccccc2[n+]([O-])c2ccccc12)C(=O)O (stereo unspecified) | > 100 |  |  | > 100 |  |  | > 100 | > 100 |  | > 100
6 | CC(=O)c1ccc(Oc2ccc(/C(C)=N\N=C(N)N)cc2)cc1 | 14.3 |  |  |  |  |  | 3.43 |  |  | 17.4
7 | O=C(NO)c1coc2ccccc2c1=O | > 100 |  |  |  |  |  | > 100 |  | > 100 | > 100
8 | CC(=O)[O-].CC(=O)[O-].O=C(N/N=C/c1cc(Cl)cc(Cl)c1[OH2+])c1ccncc1.[Co+2] |  |  |  |  |  |  | > 100 |  |  | 
